Test results: patent publication US20090264384A1, “INDOLE, BENZIMIDAZOLE, AND BENZOLACTAM BORONIC ACID COMPOUNDS, ANALOGS THEREOF AND METHODS OF USE THEREOF” (Nuada, Inc., priority 2004, published 2009)
Like-named read-outs stand apart in the source and are kept apart here.

What was measured:
[1] = Various In Vitro Cell Biology Assays (Example 41, Tables 23-26); format: cell-based; settings: for inhibition at 3 µM: PBMC, read-out: % Inhibition of Control Values; for inhibition at 3 µM / cytotoxicity at 24 h / % Inhibition of Control Values: 3×10^−6 M; for IC50: TNF-α secretion (h) (PBMC); for cytotoxicity at 24 h: human, Cell viability (h) (PBMC/24 h), MTT
Experimental: In each experiment, the respective reference compound was tested concurrently with the test compounds in order to assess the assay suitability. It was tested at several concentrations (for IC50 value determination).
The test compounds were assayed at 3×10^−6 M.
Results. The results are expressed as a percent of control values and as a percent inhibition of control values obtained in the presence of the test compounds.
The IC50 values (concentration causing a half-maximal inhibition of control values) and Hill coefficients (nH) were determined by non-linear regression analysis of the inhibition curves using Hill equation curve fitting, a summary of the data is shown in Table 26. The IC50 value for each reference compound is indicated was determined (data not shown) and was within accepted limits of the historic average ±0.5 log units.

[2] = test system: chronic colitis provoked by trinitrobenzene sulphonic acid (TNBS); test: Rat model of chronic colitis provoked by TNBS over 14 days, treatment from Day 1; format: in vivo; settings: for macroscopic Damage Score / reduction in colon weight / reduction in colonic MPO activity / reduction in colonic TNF-α levels / reduction in colonic lesion area (% of the total area measured): Day 14; for reduction in colon weight / reduction in colonic MPO activity / reduction in colonic TNF-α levels / reduction in colonic lesion area (% of the total area measured) / attenuation of TNBS-induced fall in body weight (% change of body weight at Day −1): vs CMC group; for attenuation of TNBS-induced fall in body weight (% change of body weight at Day −1): over 14 days
Excerpt: In the chronic model of colitis, assessment of the colonic inflammation is made 14 days or longer, after the intracolonic challenge with TNBS (Boughton-Smith et al, 1988a, 1988b; Wallace et al, 1989; Rachmilewitz et al, 1989; Wallace and Keenan, 1990; Ameho et al, 1987; Sans et al, 1999; Sun et al, 2001; Maric et al, 2003; Moreels et al, 2004; Gonzalez et al, 2004). This model allows treatment with experimental agents to commence following the establishment of the colonic injury, typically 24 hours after the TNBS challenge (Galvez et al, 2000, Villegas, 2003, Gonzalez et al, 2004). The model should therefore identify the ability of the experimental compounds to accelerate the diminution of the inflammatory response and to promote healing of the colonic lesions. This model thus has relevance additional to the acute model, as the clinical correlate is the therapeutic intervention in patients with existing IBD not in remission or with flare-up, to reduce the crisis. This contrasts with the acute TNBS model where the compounds are administered one or two days prior to challenge, the clinical correlate being the use of prophylactic therapy to prevent flare-up and maintain remission in IBD patients.
In this current study, the low intracolonic challenge concentration of TNBS used in the acute studies was also used for the chronic study over a 14 day period. This concentration and timing was based on the findings from pilot studies where a range of concentrations of TNBS and treatment conditions were evaluated over a 14 day period. […].
The methods and protocol used were substantially similar to those in Example 39-40, with some differences described below.
TNBS Challenge. Male Wistar rats (average body weight, 210 g) were randomised into groups before commencement of the study. In all groups, including the non-challenged and non-treated absolute control group, food was withdrawn for 12 h before TNBS administration (i.e. overnight on Day −1), but the rats were allowed free access to drinking water.
On the morning of the day of challenge (Day 0, between 9.00 and 1 1.00 a.m.), the rats were transiently anaesthetised with ether and the TNBS solution (10 mg in 0.25 ml of 50% ethanol) was instilled approximately 6-8 cm into the colon using a soft plastic catheter inserted in the rat rectum. The rats were allowed to recover with free access to food and drinking water. At the end of the experiment, on the morning of Day 14, between 9.00 and 11.00), the colon was dissected, and the distal 8 cm photographed and immediately processed or stored appropriately for subsequent analyses.
The following primary parameters were measured in the study: macroscopic scoring of distal 8 cm of colon; myeloperoxidase levels in segments of distal 8 cm of colon; TNF-α levels in segments of distal 8 cm of colon.
In addition, the weight of the standard colonic segment was assessed as an indirect and non-specific marker of oedema. The body weight of the animals was also determined each evening of the study, starting on Day-1, and also on the morning of Day 14. The data is shown graphically as the % change from the weight on Day-1, prior to challenge.
Treatments. The TNBS challenged groups for study were: (a) Vehicle control 0.5% carboxy methyl cellulose (CMC) p.o., twice daily from Day; (b) CCI-7506 25 mg/kg, p.o., twice daily from Day 1 (50 mg/kg/day total); (c) CCI-7506 50 mg/kg, p.o., twice daily from Day 1 (100 mg/kg/day total); (d) CCI-7507 12.5 mg/kg, p.o., twice daily from Day 1 (25 mg/kg/day total); (e) CCI-7507 25 mg/kg, p.o., twice daily from Day 1(50 mg/kg/day total); […]; (g) Infliximab 3 mg/kg, single slow i.v. injection, on Day 1 and Day7.
The experimental compounds that were administered orally were given twice a day from Day 1, i.e. 24 h following TNBS administration, for the remainder of the 14 day experimental period. Infliximab was administered by slow i.v. injection of Day 1 and on Day 7. […]

[3] = 24 h, IL-6 secretion (h) (PBMC), LPS 1 μg/ml, 24 h
[4] = 24 h, IL-8 secretion (h) (PBMC), LPS 1 μg/ml, 24 h
[5] = 24 h, IFN-γ secretion (h) (PBMC), PHA 2 μg/ml, 24 h
[6] = 48 h, IL-2 secretion (h) (PBMC), PHA 20 μg/ml, 48 h
[7] = 24 h, IL-1 □ secretion (h) (PBMC), LPS 1 μg/ml, 24 h
[8] = 48 h, IL-4 secretion (h) (PBMC), ConA 20 μg/ml, 48 h
[9] = 48 h, IL-10 secretion (h) (PBMC), PHA 3 μg/ml, 48 h
[10] = IL-6 secretion (h) (PBMC), LPS 1 μg/ml, 24 h

Compound: N#Cc1ncnc2c1ncn2CCCCCB(O)O [drawing 94]
- inhibition at 3 µM [1, 3]: -30%

Compound: N#Cc1ccc2c(ccn2CCCCCB(O)O)c1 [CCI-7506]
- macroscopic Damage Score ([2]; 50 mg/kg/day p.o. from Day 1): reduced the damage score
- reduction in colon weight ([2]; 50 mg/kg/day p.o. from Day 1): caused a significant reduction in the colon weight
- reduction in colonic MPO activity ([2]; 50 mg/kg/day p.o. from Day 1): caused a significant fall in the elevated MPO activity
- reduction in colonic TNF-α levels ([2]; 50 mg/kg/day p.o. from Day 1): no significant effect on the colonic TNF-α levels
- reduction in colonic lesion area (% of the total area measured) ([2]; 50 mg/kg/day p.o. from Day 1): statistically significant for both doses
- attenuation of TNBS-induced fall in body weight (% change of body weight at Day −1) ([2]; 50 mg/kg/day p.o. in divided doses from Day 1): significantly different from those in the challenged CMC control group on Days 2 to 10 and also on Days 13 and 14
- macroscopic Damage Score ([2]; 100 mg/kg/day p.o. from Day 1): reduced the damage score
- reduction in colon weight ([2]; 100 mg/kg/day p.o. from Day 1): caused a significant reduction in the colon weight
- reduction in colonic MPO activity ([2]; 100 mg/kg/day p.o. from Day 1): caused a significant fall in the elevated MPO activity
- reduction in colonic TNF-α levels ([2]; 100 mg/kg/day p.o. from Day 1): did achieve significance
- reduction in colonic lesion area (% of the total area measured) ([2]; 100 mg/kg/day p.o. from Day 1): statistically significant for both doses
- attenuation of TNBS-induced fall in body weight (% change of body weight at Day −1) ([2]; 100 mg/kg/day p.o. in divided doses from Day 1): significantly different from the CMC group on Days 2, 3 and 4

Compound: N#Cc1ncnc2c1ncn2CCCCCB(O)O [drawing 104]
- inhibition at 3 µM [1, 4]: -33%

Compound: OB(O)CCCCn1c(C(F)(F)F)nc2ccccc21 [drawing 71]
- inhibition at 3 µM [1, 5]: -6%

Compound: OB(O)CCCCCn1c(-c2cscn2)nc2ccccc21 [drawing 81]
- inhibition at 3 µM [1, 6]: 56%

Compound: N#Cc1ncnc2c1ncn2CCCCCB(O)O [drawing 79]
- inhibition at 3 µM [1, 7]: -66%

Compound: C[C@@H]1CC2C3CCC4=CC(=O)C=CC4(C)C3(F)[C@@H](O)CC2(C)C1(O)C(=O)CO (some centres unmarked) [drawing 88]
- inhibition at 3 µM [1, 8]: 118%

Compound: N#Cc1ccc2c(ccn2CCCCCB(O)O)c1 [drawing 112]
- IC50 ([1]; LPS 1 μg/ml, 24 h): 1500 nM

Compound: Nc1nc(Cl)c2ncn(CCCCCB(O)O)c2n1 [drawing 103]
- inhibition at 3 µM [1, 4]: 8%

Compound: Nc1nc(Cl)c2ncn(CCCCCB(O)O)c2n1 [drawing 89]
- inhibition at 3 µM [1, 8]: -30%

Compound: C[C@@H]1CC2C3CCC4=CC(=O)C=CC4(C)C3(F)[C@@H](O)CC2(C)C1(O)C(=O)CO (some centres unmarked) [drawing 114]
- IC50 ([1]; LPS 1 μg/ml, 24 h): 36 nM

Compound: OB(O)CCCCn1c(C(F)(F)F)nc2ccccc21 [drawing 96]
- inhibition at 3 µM [1, 9]: 17%

Compound: N#Cc1ccc2c(ccn2CCCCCB(O)O)c1 [drawing 95]
- inhibition at 3 µM [1, 9]: 36%

Compound: N#Cc1ncnc2c1ncn2CCCCCB(O)O [CCI-7048]
- inhibition at 3 µM [1, 6]: 23%
- inhibition at 3 µM [1, 8]: -45%

Compound: OB(O)CCCCn1c(C(F)(F)F)nc2ccccc21 [drawing 91]
- inhibition at 3 µM [1, 3]: -26%

Compound: N#Cc1ncnc2c1ncn2CCCCCB(O)O [drawing 99]
- inhibition at 3 µM [1, 9]: 13%

Compound: OB(O)CCCCCn1c(-c2cscn2)nc2ccccc21 [drawing 69]
- inhibition at 3 µM [1, 5]: 21%

Compound: Nc1nc(Cl)c2ncn(CCCCCB(O)O)c2n1 [drawing 84]
- inhibition at 3 µM [1, 6]: 78%

Compound: C[C@@H]1CC2C3CCC4=CC(=O)C=CC4(C)C3(F)[C@@H](O)CC2(C)C1(O)C(=O)CO (some centres unmarked) [drawing 107]
- cytotoxicity at 24 h [1]: 6%

Compound: COc1ccc(-c2nc3ccccc3n2CCCCCB(O)O)cc1 [drawing 110]
- IC50 ([1]; LPS 1 μg/ml, 24 h): 200 nM

Compound: C[C@@H]1CC2C3CCC4=CC(=O)C=CC4(C)C3(F)[C@@H](O)CC2(C)C1(O)C(=O)CO (some centres unmarked) [drawing 102]
- inhibition at 3 µM [1, 4]: 67%

Compound: OB(O)CCCCCn1c(-c2cscn2)nc2ccccc21 [drawing 90]
- % Inhibition of Control Values [1, 10]: −61%

Compound: C[C@@H]1CC2C3CCC4=CC(=O)C=CC4(C)C3(F)[C@@H](O)CC2(C)C1(O)C(=O)CO (some centres unmarked) [drawing 93]
- % Inhibition of Control Values [1, 10]: −70%

Compound: C[C@@H]1CC2C3CCC4=CC(=O)C=CC4(C)C3(F)[C@@H](O)CC2(C)C1(O)C(=O)CO (some centres unmarked) [drawing 83]
- inhibition at 3 µM [1, 6]: 18%

Compound: OB(O)CCCCCn1c(-c2cscn2)nc2ccccc21 [drawing 111]
- IC50 ([1]; LPS 1 μg/ml, 24 h): > 3000 nM

Compound: Nc1nc(Cl)c2ncn(CCCCCB(O)O)c2n1 [drawing 73]
- inhibition at 3 µM [1, 5]: 56%

Compound: C[C@@H]1CC2C3CCC4=CC(=O)C=CC4(C)C3(F)[C@@H](O)CC2(C)C1(O)C(=O)CO (some centres unmarked) [drawing 97]
- inhibition at 3 µM [1, 9]: 62%

Compound: N#Cc1ncnc2c1ncn2CCCCCB(O)O [drawing 109]
- cytotoxicity at 24 h [1]: 5%

Compound: OB(O)CCCCn1c(C(F)(F)F)nc2ccccc21 [drawing 101]
- inhibition at 3 µM [1, 4]: -29%

Compound: OB(O)CCCCCn1c(-c2cscn2)nc2ccccc21 [drawing 75]
- inhibition at 3 µM [1, 7]: -67%

Compound: C[C@@H]1CC2C3CCC4=CC(=O)C=CC4(C)C3(F)[C@@H](O)CC2(C)C1(O)C(=O)CO (some centres unmarked) [drawing 78]
- inhibition at 3 µM [1, 7]: -12%

Compound: OB(O)CCCCCn1c(-c2cscn2)nc2ccccc21 [CCI-7034]
- % Inhibition of Control Values [1, 10]: −89%
- inhibition at 3 µM [1, 4]: -32%
- inhibition at 3 µM [1, 9]: 42%
- cytotoxicity at 24 h [1]: -9%

Compound: C[C@@H]1CC2C3CCC4=CC(=O)C=CC4(C)C3(F)[C@@H](O)CC2(C)C1(O)C(=O)CO (some centres unmarked) [drawing 92]
- % Inhibition of Control Values [1, 10]: 57%

Compound: N#Cc1ncnc2c1ncn2CCCCCB(O)O [drawing 74]
- inhibition at 3 µM [1, 5]: 14%

Compound: Nc1nc(Cl)c2ncn(CCCCCB(O)O)c2n1 [drawing 108]
- cytotoxicity at 24 h [1]: 6%

Compound: N#Cc1ccc2c(ccn2CCCCCB(O)O)c1 [drawing 70]
- inhibition at 3 µM [1, 5]: 16%

Compound: N#Cc1ccc2c(ccn2CCCCCB(O)O)c1 [drawing 105]
- cytotoxicity at 24 h [1]: 0%

Compound: OB(O)CCCCn1c(C(F)(F)F)nc2ccccc21 [drawing 106]
- cytotoxicity at 24 h [1]: -6%

Compound: N#Cc1ccc2c(ccn2CCCCCB(O)O)c1 [drawing 100]
- inhibition at 3 µM [1, 4]: -63%

Compound: C[C@@H]1CC2C3CCC4=CC(=O)C=CC4(C)C3(F)[C@@H](O)CC2(C)C1(O)C(=O)CO (some centres unmarked) [drawing 72]
- inhibition at 3 µM [1, 5]: 68%

Compound: OB(O)CCCCn1c(C(F)(F)F)nc2ccccc21 [drawing 82]
- inhibition at 3 µM [1, 6]: 72%
